Experimental data: US9358305B2, “Targeted carriers for drug delivery across the gastrointestinal epithelium” (University of Maryland, College Park, priority 2009, dated 2016)
Ends that are not written are not given here.

How the values were obtained:
ICAM-1 on HUVEC = experiment: Leukocyte transmigration across TNF-activated HUVEC monolayer in transwell; assay type: cell-based, human; details: compared to albumin, scrambled peptide and LB2 controls
Description: Human endothelial cells (human umbilical vein endothelial cells (HUVECs)) were grown until formation of a continuous confluent monolayer in a transwell filter located between upper and lower chambers. The cells were then treated with tumor necrosis factor alpha to mimic inflammatory activation of endothelial cells and SDF1a was added to the lower chamber to generate a gradient to attract white blood cells, as during inflammation. Lymphocytes isolated from human peripheral blood were activated with interleukin 2 and added to the upper chamber above endothelial cells in the absence (control) or presence of ICAM-1-targeting peptides A1, B7, B8, B9, B10, or D6. Albumin or a peptide of scrambled sequence were used as negative controls which should not block inflammatory transmigration of leukocytes across endothelial cells. The anti-ICAM antibody LB2, which is known to block leukocyte adhesion to ICAM-1, was used as a positive control which should block such transmigration.
Leukocytes which transmigrated to the lower chamber below endothelial cells were counted to assess their transmigration. FIG. 9 provides a graph of the resulting leukocyte transmigration as a percentage of the control. The peptides annotated with an asterisk in FIG. 9 indicate that the peptide was effective in statistically significant blockage of leukocyte transmigration across endothelial cells.

human ICAM-1 = experiment: Binding of clone A1 phages to human ICAM-1/hFc and HUVEC
mouse ICAM-1/hFc [1] = experiment: ELISA of 7-mer peptide phage clones on immobilized mouse ICAM-1/hFc vs hFc; assay type: binding; details: phage clone
Excerpt: (§1) (A) ELISA measurement of the binding of 7-mer peptide expressing phage library to immobilized recombinant ICAM-1 (consisting of the two most membrane-distal Ig domains—1 and 2—of mouse ICAM-1 fused to human Fc or hFc), versus their binding to control hFc. (B) Relative specificity and (C) relative affinity of ICAM-1-targeting peptide phages, determined by ELISA from the experiment in (A). (D) Relative binding of phages expressing 7-mer peptides to native ICAM-1 expressed on the surface of HV5 mouse endothelial cells, either control or activated with TNFalpha to mimic a disease phenotype. Binding was determined by microscopy using a fluorescently-labeled antibody to the phage capsid. The line in the graph indicates the level of binding of A1 phage to 293 cells, which are voided of ICAM-1-expression. […] (G) Binding of FITC-labeled anti-ICAM polystyrene nanocarriers to human endothelial cells was evaluated by fluorescence microscopy after incubation with cells in the absence (100% level) or presence of anti-ICAM antibody, ICAM-1-targeting synthetic peptides, or peptides with their scramble sequence (e.g., A1sc).

mouse ICAM-1/hFc [2] = molecular target: T1, mouse ICAM-1/hFc (Mus musculus, UniProt P13597); experiment: as above; assay type: binding; details: phage clone
T1 construct: the two most membrane-distal Ig domains—1 and 2—of mouse ICAM-1 fused to human Fc or hFc
T1 sequence (P13597 28-214): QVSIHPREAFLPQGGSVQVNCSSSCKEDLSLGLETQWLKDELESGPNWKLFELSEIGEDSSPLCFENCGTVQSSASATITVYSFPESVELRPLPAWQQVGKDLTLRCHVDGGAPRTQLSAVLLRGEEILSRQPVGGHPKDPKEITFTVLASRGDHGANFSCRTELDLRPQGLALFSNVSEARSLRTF
Excerpt: as §1

[3] = molecular target: T2, ICAM-1 on human endothelial cells (Homo sapiens, UniProt P05362); experiment: Competition of binding of anti-ICAM nanocarriers to human endothelial cells by synthetic peptides; assay type: cell-based
T2 construct: endogenous in cells
T2 sequence (P05362 28-532): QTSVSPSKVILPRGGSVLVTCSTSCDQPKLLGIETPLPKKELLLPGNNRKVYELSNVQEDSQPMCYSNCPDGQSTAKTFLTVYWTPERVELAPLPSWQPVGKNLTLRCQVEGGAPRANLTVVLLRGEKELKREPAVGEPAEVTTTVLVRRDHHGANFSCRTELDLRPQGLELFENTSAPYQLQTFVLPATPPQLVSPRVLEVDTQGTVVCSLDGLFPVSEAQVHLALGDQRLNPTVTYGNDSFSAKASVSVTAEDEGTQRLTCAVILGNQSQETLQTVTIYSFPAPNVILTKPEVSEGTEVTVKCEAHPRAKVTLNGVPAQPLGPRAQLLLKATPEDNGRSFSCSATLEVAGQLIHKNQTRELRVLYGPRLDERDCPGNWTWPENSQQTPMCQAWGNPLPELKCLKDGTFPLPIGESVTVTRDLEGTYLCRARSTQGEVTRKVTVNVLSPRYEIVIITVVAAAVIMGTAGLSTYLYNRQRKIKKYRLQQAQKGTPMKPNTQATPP
Excerpt: (A) ELISA measurement of the binding of 7-mer peptide expressing phage library to immobilized recombinant ICAM-1 (consisting of the two most membrane-distal Ig domains—1 and 2—of mouse ICAM-1 fused to human Fc or hFc), versus their binding to control hFc. (B) Relative specificity and (C) relative affinity of ICAM-1-targeting peptide phages, determined by ELISA from the experiment in (A). (D) Relative binding of phages expressing 7-mer peptides to native ICAM-1 expressed on the surface of HV5 mouse endothelial cells, either control or activated with TNFalpha to mimic a disease phenotype. Binding was determined by microscopy using a fluorescently-labeled antibody to the phage capsid. The line in the graph indicates the level of binding of A1 phage to 293 cells, which are voided of ICAM-1-expression. (E, F) Endocytosis (1 h, 37° C.) of phages expressing 7-mer peptides by control mouse endothelial cells (E) or mouse endothelial cells incubated in the presence of 3 mM amiloride (F) was estimated by microscopy after staining surface-located phages with a Texas red-labeled antibody to the viral capsid, following by cell permeabilization and staining of all (surface and internalized) phages using a FITC-labeled antibody to the viral capsid. (G) Binding of FITC-labeled anti-ICAM polystyrene nanocarriers to human endothelial cells was evaluated by fluorescence microscopy after incubation with cells in the absence (100% level) or presence of anti-ICAM antibody, ICAM-1-targeting synthetic peptides, or peptides with their scramble sequence (e.g., A1sc).

insulin receptor = insulin receptor (Homo sapiens, UniProt P06213); details: reported for other strategies; cited from earlier work

With YPASYQR [A1, YPASYQR] the “Leukocyte transmigration across endothelial cells” value (ICAM-1 on HUVEC) was “inhibit leukocyte transmigration”, the “Affinity for human ICAM-1 relative to mouse ICAM-1” value (human ICAM-1) was ~70 % affinity of mouse ICAM-1 and the “Specificity vs hFc” value (mouse ICAM-1/hFc [1]) was ~5.1 fold. For the same molecule, the “Affinity to immobilized mouse ICAM-1 over non-selected phages” value (mouse ICAM-1/hFc [2]) was ~4.7 fold and the “Inhibition of binding of anti-ICAM nanocarriers to human endothelial cells” value [3] was ~80 % inhibition.

B1: α-L-iduronidase: enzyme targeted to insulin receptor, reported brain delivery strategy (protein, UniProt P35475 28-653, looked up)
Alpha-L-iduronidase: APHLVHVDAARALWPLRRFWRSTGFCPPLPHSQADQYVLSWDQQLNLAYVGAVPHRGIKQVRTHWLLELVTTRGSTGRGLSYNFTHLDGYLDLLRENQLLPGFELMGSASGHFTDFEDKQQVFEWKDLVSSLARRYIGRYGLAHVSKWNFETWNEPDHHDFDNVSMTMQGFLNYYDACSEGLRAASPALRLGGPGDSFHTPPRSPLSWGLLRHCHDGTNFFTGEAGVRLDYISLHRKGARSSISILEQEKVVAQQIRQLFPKFADTPIYNDEADPLVGWSLPQPWRADVTYAAMVVKVIAQHQNLLLANTTSAFPYALLSNDNAFLSYHPHPFAQRTLTARFQVNNTRPPHVQLLRKPVLTAMGLLALLDEEQLWAEVSQAGTVLDSNHTVGVLASAHRPQGPADAWRAAVLIYASDDTRAHPNRSVAVTLRLRGVPPGPGLVYVTRYLDNGLCSPDGEWRRLGRPVFPTAEQFRRMRAAEDPVAAAPRPLPAGGRLTLRPALRLPSLLLVHVCARPEKPPGQVTRLRALPLTQGQLVLVWSDEHVGSKCLWTYEIQFSQDGKAYTPVSRKPSTFNLFVFSPDTGAVSGSYRVRALDYWARPGPFSDPVPYLEVPVPRGPPSPGNP
For B1, the “Brain accumulation, targeting to insulin receptor” value (insulin receptor) is given as 0.02 % injected dose per gram (% ID/g).
